Data from US20200069679A1, “NINTEDANIB FOR USE IN METHODS FOR THE TREATMENT OF INTERSTITIAL LUNG DISEASES BY COADMINISTRATION WITH OLADATEROL” (Boehringer Ingelheim International GmbH, priority 2016, published 2020).

Test system: TGF-β induced ET-1 release in cultured human lung fibroblasts (IPF-HLF)
Assay: TGF-β induced ET-1 release in cultured human lung fibroblasts from IPF patients (ELISA of supernatant)
Format: cell-based
Conditions: IPF-HLF stimulated with TGF-β for 48 h, n=6 incubations, normalized to unstimulated (=100% inhibition) and TGF-β-stimulated (=0% inhibition) ET-1 levels
Experimental: The principle of the assay is the incubation of IPF-HLF with transforming growth factor beta (TGF-β) for 48 h. In the cell culture supernatant the concentration of the pro-fibrotic mediator endothelin-1 (ET-1) was determined by enzyme linked immune sorbent assay.
HLFs from 5 different patients with idiopathic pulmonary fibrosis (IPF) were used to do repeated measurements. For the control groups without TGF-β stimulation, data sets from 11 incubations were included and for TGF-β-stimulated fibroblasts data sets from 12 incubations were included. For all olodaterol and/or nintedanib-treated groups, n=6 incubations were conducted. The experiments were conducted in the presence of nintedanib at 30 nM concentration and/or olodaterol at 1 pM (FIG. 1), 10 pM (FIG. 2) and 100 pM (FIG. 3) concentrations, respectively.

In the case of COC(=O)c1ccc2c(c1)NC(=O)/C2=C(\Nc1ccc(N(C)C(=O)CN2CCN(C)CC2)cc1)c1ccccc1 [nintedanib], the “reduction of ET-1 release” value (nintedanib at 30 nM) is reported as 7%.

With COc1ccc(CC(C)(C)NC[C@H](O)c2cc(O)cc3c2OCC(=O)N3)cc1 [olodaterol] the “reduction of ET-1 release” value (olodaterol at 1-100 pM) was 1%-47%.
